Entries after “also recorded” stand apart in the source; their conditions may differ.
How the values were obtained:
[1] = Tolerability of topical use on the eye; format: in vivo, human; conditions: topical ocular use
epithelial cells = assay: Staining behaviour on tear film and corneal epithelial cells

Structure (SMILES): Cc1cc2nc3c(=O)[nH]c(=O)nc-3n(C[C@H](O)[C@H](O)[C@H](O)CO)c2cc1C [riboflavin]
- harmfulness / side effects on the eye [1]: not harmful to the human eye; also recorded: side no effects; also recorded: absence of toxic effects on the corneal epithelium
- penetration into cells (epithelial cells): does not penetrate into the cells

From patent publication US9370587B2, “Coloring substance for diagnostic ophtalmologic use” (IROS R.C. S.r.l., priority 2012, dated 2016)
